{
  "source": "patent US20060199870A1",
  "about": "“Method for producing aqueous ortho-phthalaldehyde solutions” (DSM Fine Chemicals Austria Nfg GmbH & Co KG, priority 2005, published 2006)",
  "assay": "Solubility / attainable concentration of OPA in aqueous solution",
  "assay_type": "physicochemical",
  "source_text": "According to the invention, sufficient acetal is introduced into water and dissolved, so that after acidifying, a 0.025 to 9% strength by weight aqueous OPA solution is obtained. Preference is given to 0.05 to 5% strength by weight solutions, particularly preferably 0.5 to 2% strength by weight solutions.\nIt is advantageous in the inventive method that, compared with the use of OPA itself, more highly concentrated solutions (9% compared with 5%) can be produced, since the alcohol eliminated by the acidification favors the dissolution of the OPA formed.\nIn addition, if desired, the alcohol being eliminated can be removed from the solution by distilling it off, as a result of which, however, the solubility is reduced again to 5%.",
  "data": [
    {"smiles": "O=Cc1ccccc1C=O", "note": "[OPA, ortho-phthalaldehyde]", "values": [
      {"measurement": "solubility", "setting": "aqueous solution after the eliminated alcohol is distilled off", "result": 5, "unit": "%"},
      {"measurement": "attainable concentration of aqueous OPA solution", "setting": "solution produced from OPA acetal, alcohol eliminated by the acidification remains in solution", "result": 9, "unit": "%"},
      {"measurement": "attainable concentration of aqueous OPA solution", "setting": "use of OPA itself dissolved in water", "result": 5, "unit": "%"}
    ]}
  ]
}
